Results as given in ChEMBL document CHEMBL4049425, “Fragment-Based, Structure-Enabled Discovery of Novel Pyridones and Pyridone Macrocycles as Potent Bromodomain and Extra-Terminal Domain (BET) Family Bromodomain Inhibitors” (J Med Chem, 2017).
Active and inactive are the calls of the source. The calls are words filed in the database; no cut-off is given here.

What was measured:
Liver [1] = experiment: Unbound intrinsic clearance in human liver microsomes; format: ADME, microsome
Plasma [2] = experiment: Free plasma concentration required to reach in vitro EC50 for human OPM2 cells in SCID-Beige mouse xenografted with human OPM2 cells at 1 to 3 mg/kg, po
Mus musculus [3] = experiment: Toxicity in SCID-Beige mouse xenografted with human OPM2 cells assessed as weight loss at 1 mg/kg, po qd for 21 days (reference value: 2%); format: organism-based; conditions: in vivo, 504 h
MX1 = experiment: Antiproliferative activity against human MX1 cells after 72 hrs by Cell Titer Glo assay; format: functional, cell-based; conditions: MX1, 72 h
OPM-2 [4] = experiment: Antitumor activity against human OPM2 cells xenografted in SCID-Beige mouse assessed as tumor growth inhibition at 1 to 3 mg/kg, po qd measured after 21 days; format: functional, organism-based
Liver [5] = experiment: Unbound intrinsic clearance in rat liver microsomes; format: ADME, microsome
OPM-2 [6] = experiment: Antiproliferative activity against human OPM2 cells; format: functional, cell-based
Mus musculus [7] = experiment: Unbound plasma clearance in mouse at 3 mg/kg, iv or 10 mg/kg, po; format: ADME, organism-based; conditions: in vivo
[8] = Fraction unbound in SCID-Beige mouse plasma xenografted with human OPM2 cells at 1 to 3 mg/kg, po; format: ADME, organism-based
[9] = molecular target: T1, Bromodomain-containing protein 4 (Homo sapiens, UniProt O60885); experiment: Inhibition of human N-terminal His6-tagged BRD4 BD1-BD2 (57 to 550 residues) expressed in EScherichia coli BL21(DE3) after 1 hr by Alexa-647-conjugated probe based TR-FRET assay
[10] = Lipophilicity, log D of the compound; format: physicochemical; conditions: octanol/water
Mus musculus [11] = experiment: Time required to reach in vitro EC50 for human OPM2 cells in SCID-Beige mouse xenografted with human OPM2 cells at 3 mg/kg, po
OPM-2 [12] = experiment: Antitumor activity against human OPM2 cells xenografted in SCID-Beige mouse assessed as tumor growth inhibition at 1 mg/kg, po qd for 21 days relative to control; format: functional; conditions: OPM-2, po, 504 h, read-out: TGI
[13] = molecular target: T1, Bromodomain-containing protein 4; experiment: Inhibition of BRD4 in human NCI-H1299 cells after 24 hrs by Bright-Glo luciferase reporter gene assay; format: cell-based
[14] = Oral bioavailability in mouse at 10 mg/kg; format: ADME, organism-based; conditions: in vivo
OPM-2 [15] = experiment: Antitumor activity against human OPM2 cells xenografted in SCID-Beige mouse assessed as tumor growth inhibition at 3 mg/kg, po qd for 21 days relative to control; format: functional; conditions: OPM-2, po, 504 h, read-out: TGI
Mus musculus [16] = experiment: Dose normalized fAUC in mouse at 3 mg/kg, iv or 10 mg/kg, po; format: ADME, organism-based; conditions: in vivo
Mus musculus [17] = experiment: Fraction absorbed in portal vein of mouse at 3 mg/kg, iv or 10 mg/kg, po; format: ADME, organism-based; conditions: in vivo
Mus musculus [18] = experiment: Toxicity in SCID-Beige mouse xenografted with human OPM2 cells assessed as weight loss at 3 mg/kg, po qd for 21 days (reference value: 2%); format: organism-based; conditions: in vivo, 504 h
[19] = Fraction unbound in mouse plasma at 1 uM after 4 hrs by LC-MS/MS analysis; format: ADME, cell-free
Liver [20] = experiment: Unbound intrinsic clearance in mouse liver microsomes; format: ADME, microsome
Mus musculus [21] = experiment: Unbound clearance in mouse at 1 mg/kg, iv or 1 mg/kg, po; format: ADME, organism-based; conditions: in vivo
OPM-2 [22] = experiment: Antitumor activity against human OPM2 cells xenografted in SCID-Beige mouse assessed as tumor growth inhibition compound administered po qd for 21 days; format: functional, organism-based
OPM-2 [23] = experiment: Antitumor activity against human OPM2 cells xenografted in SCID-Beige mouse assessed as tumor growth inhibition at 2 mg/kg, po qd for 21 days relative to control; format: functional; conditions: OPM-2, po, 504 h, read-out: TGI
Plasma [24] = experiment: Free plasma concentration required to reach in vitro EC50 for human OPM2 cells in SCID-Beige mouse xenografted with human OPM2 cells at 1 to 2 mg/kg, po
Mus musculus [25] = experiment: Toxicity in SCID-Beige mouse xenografted with human OPM2 cells assessed as weight loss at 2 mg/kg, po qd for 21 days (reference value: 2%); format: organism-based; conditions: in vivo, 504 h
Mus musculus [26] = experiment: Fraction absorbed in portal vein of mouse at 1 mg/kg, iv or 1 mg/kg, po; format: ADME, organism-based; conditions: in vivo
[27] = Oral bioavailability in rat at 1 mg/kg; format: ADME, organism-based; conditions: in vivo
[28] = Oral bioavailability in mouse at 1 mg/kg; format: ADME, organism-based; conditions: in vivo
[29] = Permeability of the compound by PAMPA; format: physicochemical; conditions: read-out: permeability
Mus musculus [30] = experiment: Unbound AUC in mouse at 1 mg/kg, po; format: ADME, organism-based; conditions: in vivo
Rattus norvegicus [31] = experiment: Fraction absorbed in portal vein of rat at 1 mg/kg, iv or 1 mg/kg, po; format: ADME, organism-based; conditions: in vivo
Mus musculus [32] = experiment: Time required to reach in vitro EC50 for human OPM2 cells in SCID-Beige mouse xenografted with human OPM2 cells at 2 mg/kg, po
Rattus norvegicus [33] = experiment: Unbound clearance in rat at 1 mg/kg, iv or 1 mg/kg, po; format: ADME, organism-based; conditions: in vivo
[34] = Fraction unbound in rat plasma; format: ADME, cell-free
[35] = Fraction unbound in SCID-Beige mouse plasma xenografted with human OPM2 cells at 1 to 2 mg/kg, po; format: ADME, organism-based
Rattus norvegicus [36] = experiment: Unbound AUC in rat at 1 mg/kg, po; format: ADME, organism-based; conditions: in vivo

Structure (SMILES)	CL free (Liver [1]) [mL/min/kg]	Activity (Mus musculus [3]) [%]	EC50 (MX1) [nM]	CL free (Liver [5]) [mL/min/kg]	EC50 (OPM-2 [6]) [nM]	Ki [9] [nM]	logD [10]	EC50 [13] [nM]	fraction unbound at 4 h, 1 µM [19]	CL free (Liver [20]) [mL/min/kg]	CL free (Mus musculus [21]) [mL/min/kg]	FaFg (Mus musculus [26])	bioavailability [27] [%]	bioavailability [28] [%]	Papp [29] [×10⁻⁶ cm/s]	fAUC (Mus musculus [30]) [ng·h/mL]	FaFg (Rattus norvegicus [31])	CL free (Rattus norvegicus [33]) [mL/min/kg]	fraction unbound [34]	fAUC (Rattus norvegicus [36]) [ng·h/mL]	also measured
CCS(=O)(=O)Nc1ccc(Oc2ccc(F)cc2F)c(-c2cn(C)c(=O)cc2OC)c1	76.7	6	47	250	23	13	2.8 to 4.3	56	0.14	267	–	–	–	–	–	–	–	–	–	–	Cp(f) (Plasma [2]): 0.16 µM; TGI (OPM-2 [4]): inactive; CL free (Mus musculus [7]): 183 mL/min/kg; fraction unbound [8]: 0.14; Time (Mus musculus [11]): 6.5 h; inhibition in vivo at 1 mg/kg (OPM-2 [12]): 66%; bioavailability [14]: 63%; inhibition in vivo at 3 mg/kg (OPM-2 [15]): 73%; fAUC/dose (Mus musculus [16]): 0.081 µg·h/mL per mg/kg; FaFg (Mus musculus [17]): 0.89; Activity (Mus musculus [18]): 5%
CCS(=O)(=O)c1cnc2c(c1)-c1cn(C)c(=O)cc1OCCCCc1cc(Cl)ccc1O2	58.3	4	33	73.3	12	8.9	2.8 to 4.3	34	0.04	267	140	0.9	95	84	15	100	1	233	0.09	69	TGI (OPM-2 [22]): Dose-dependent effect; inhibition in vivo at 2 mg/kg (OPM-2 [23]): 85%; Cp(f) (Plasma [24]): 0.3 µM; Activity (Mus musculus [25]): 4%; inhibition in vivo at 1 mg/kg (OPM-2 [12]): 73%; Time (Mus musculus [32]): >12 h; fraction unbound [35]: 0.04
Cn1cc2c(cc1=O)OCCCCc1cc(Cl)ccc1Oc1ncc(CS(C)(=O)=O)cc1-2	56.7	–	24	107	–	11	2.8 to 4.3	24	0.12	158	88.3	0.51	2.8	45	12	85	0.42	142	0.24	2	–
CCS(=O)(=O)Nc1ccc2c(c1)-c1cn(C)c(=O)cc1OCCCCc1cc(Cl)ccc1O2	< 217	–	5.7	433	–	1.5	2.8 to 4.3	5.1	0.01	2330	417	0.41	16	39	2.2	16	0.44	2330	0.02	1	–
